Legend:
[1] = Olfactory description of the individual compounds; settings: pure compound
Excerpt: The olfactory descriptions of the individual compounds are as follows: […]

[2] = Olfactory evaluation of perfume oils with and without 4-decyl pyridine dosed into products
Excerpt: The composition with 4-n-decyl pyridine also has a fresher radiance overall.
Furthermore, the composition as a whole appears to be more harmonious and rounded.

[3] = Diffusivity test (Petri dish 50 cm in front of the test subject, intensity rating); settings: scale 1-9 (1=odorless to 9=very strong); 0.5 g in Petri dish, 50 cm from test subject, 20-25° C.
Excerpt: 0.5 g of the odiferous substances to be tested are each weighed in a Petri dish and sealed with the lid. The Petri dish is placed 50 cm in front of the test subject (the distance is marked on the table before the test commences).
The lid is then removed from the Petri dish and a stopwatch is simultaneously started by the test subject. The test subject stops the time immediately they perceive the odor. The test subject assesses the intensity of the sample on a scale of 1=odorless to 9=very strong. The stop time and the intensity are noted on the test sheet.
Each sample is evaluated by the test subject three times. In order to be certain that the result is not distorted, all windows and doors must be shut. The room is at normal temperature (20-25° C.). […] As a rule a minimum of 8 participants evaluate the sample.

[4] = Threshold value in air (odor perception threshold, sample bag with gas stream); settings: equilibrium approximately 18 hours at ambient temperature; as a rule 8 test subjects
Protocol: The odiferous substance to be tested is evaporated in a defined sampling system and then assessed sensorially with regard to the perception threshold. The sampling system comprises the sample bag and a gas stream outlet. A defined quantity of the desired odiferous substance is squirted into the bag. The equilibrium time after filling with the sample is approximately 18 hours at ambient temperature; then the content of the bag is presented to the test subject by means of a constant gas stream. At the first discernable olfactory impression a response button is pressed. The odor threshold concentration is achieved when in the next dilution stage the olfactory impression is confirmed by repeated pressing of the response button. The concentration of the sample is increased between the previous and the next samples by a factor of 2.
The assessment of the threshold value in air is measured against a standard and as a rule 8 test subjects take part in the sensorial evaluation. The participants have no anosmia in respect of the samples to be investigated.

CCCCCCCCCc1ccncc1 [4-n-nonyl pyridine, 4-nonyl pyridine]
olfactory description [1]: distinctive odor of the sea

CCCCCCCCCCCc1ccncc1 [4-n-undecyl pyridine, 4-undecyl pyridine]
olfactory description [1]: marine character, combining an aldehyde-like note with slight echoes of mandarin

CCCCCCCCCCc1ccncc1 [4-decyl pyridine]
olfactory effect in perfume oil ([2]; 0.001% in perfume oil F2, 12% perfume oil in ethanol (fine fragrance)): intensifies the transparent fresh head note | olfactory effect in perfume oil ([2]; 0.005% in perfume oil A2, 0.3% perfume oil in all-purpose cleaner, versus A1): extreme intensification of the marine-mossy note | olfactory effect in perfume oil (booster effect) ([2]; 0.01% in perfume oil P2, 0.3% perfume oil in washing powder, versus P1): intensification of the lily of the valley and the fruity notes to a quite exceptional extent | olfactory effect in perfume oil ([2]; 0.02% in perfume oil D2, 0.5% perfume oil in shower gel): boosts (intensifies) the watery-fresh head note of the perfume oil composition | olfactory effect in perfume oil ([2]; 0.05% in perfume oil S2, 0.5% perfume oil in shampoo): intensifies (at a dosing of 0.5% of the perfume oil in the shampoo) the fruity peach/apricot character | olfactory effect in perfume oil ([2]; 0.07% in perfume oil C2, 1.2% perfume oil in soap, versus C1): enormous intensification of the fresh characteristic | olfactory effect in perfume oil ([2]; 1.0% in perfume oil W2, 0.6% perfume oil in fabric conditioner): greatly increases the sought-after violet character | Diffusivity [3]: 8.1 | Threshold value in air [4]: 0.014 ppm | olfactory description [1]: valuable marine character prized and sought after by perfumists

CCCCCCCCCCCCc1ccncc1 [4-n-dodecyl pyridine]
olfactory description [1]: Marine (watery) note, reminiscent of seaweed

CC(C)=CCCC(C)=CCCc1ccncc1 [Maritima ®, 4-(4,8-dimethyl-3,7-nonadienyl)-pyridine, reference compound]
Diffusivity [3]: 3.4 | Threshold value in air [4]: 0.155 ppm

CCCCCCCCc1ccncc1 [4-n-octyl pyridine, 4-octyl pyridine]
olfactory description [1]: very intensive marine (watery) odor with an ozone note

Reference: patent US8865634B2, “4-alkyl substituted pyridines as odiferous substances” (Symrise AG, priority 2008, dated 2014)
